Tests used:
Type in all cases: cell-based
[1] = system: Panc 05.04 cells (pancreatic cancer cells; Q699H and K700E mutations in SF3B1); experiment: Cell viability assay (CellTiter-Glo, 72 hr), Panc 05.04 cells; conditions: Panc 05.04 cells (mutant SF3B1); for Emax: maximum achievable response in tested dose range, negative value = cellular lethality, read-out: Panc 05.04 (mt SF3B1 cells) Emax (%); for GI50: read-out: Panc 05.04 (mt SF3B1 cells), GI50
Protocol: (§1) Cells (WiDr and Panc05.04 obtained from ATCC) were seeded in 96-well plates, with 2000 cells/100 μL/well, and incubated overnight. Spent media was removed, and fresh media containing 9 different concentrations of compound (100 μL/well) were added, with DMSO concentration from compound stock solution adjusted to be 0.1%. Each compound treatment was done in duplicate or triplicate at each concentration.
(§2) Another plate with cells seeded was dedicated as a time zero (Tz) plate, to which was added 0.1% DMSO in media (100 μL/well) followed by CellTiter-Glo® reagent (Promega Corporation, Madison, Wisconsin) (50 μL/well) for ATP measurement as a surrogate of cell viability. Average value from measurement of multiple wells of this plate is used as Tz. Compound-treated plates were incubated for 72 hr at 37° C. Then, CellTiter-Glo® reagent (50 μL/well) was added and ATP was measured. Average value from measurement of the duplicate or triplicate compound-treated wells is used as Ti, and seeded plates with medium having 0.1% DMSO without compound is used as control growth (C).
(§3) Percentage growth inhibition/Percentage viability was calculated as:
(§4) [(Ti−Tz)/(C−Tz)]×100 for concentrations for which Ti>/=Tz
(§5) [(Ti−Tz)/Tz]×100 for concentrations for which Ti<Tz.
(§6) *time zero (Tz), control growth (C), and test growth in the presence of compound (Ti) Percentage growth inhibition/Percentage viability are plotted versus compound concentration to determine Emax.
(§7) Emax refers to the maximum achievable response to a compound in a tested dose range, with a negative value indicating cellular lethality. A larger negative Emax value indicates greater cellular lethality for a particular compound.

[2] = system: WiDr-R cells (colon cancer cells; chemically-induced SF3B1 R1074H mutant); experiment: Cell viability assay (CellTiter-Glo, 72 hr), resistant WiDr-R cells (counter-screen); conditions: WiDr-R cells (SF3B1 R1074H mutation, resistant); read-out: WiDr-R GI50
Protocol: as §1, §2, §3, §4, §5, §6, §7
The counter-screening of compounds in this viability assay with a “resistant” WiDr-R cell line may indicate whether these compounds have off-target effect(s).

[3] = system: WiDr cells (colon cancer cells; wildtype SF3B1); experiment: Cell viability assay (CellTiter-Glo, 72 hr), WiDr cells; conditions: Homo sapiens; WiDr cells (wildtype SF3B1); read-out: WiDr GI50
Protocol: as §1, §2, §3, §4, §5, §6
Emax refers to the maximum achievable response to a compound in a tested dose range, with a negative value indicating cellular lethality. A larger negative Emax value indicates greater cellular lethality for a particular compound. […]

Row | Compound | Emax [1] [%] | GI50 [1] [nM] | GI50 [2] [nM] | GI50 [3] [nM]
1 | C/C(=C\C=C\C(C)c1ccnc(N2CCCC2)n1)[C@H]1OC(=O)CCCCC[C@@H](OC(=O)N2CCN(C3CCCCCC3)CC2)/C=C/[C@@H]1C (stereo partly shown) | 52 | > 10000 | 4080 | 810
2 | C/C(=C\C=C\[C@@H](C)COC(=O)N1CCCC1C(C)O)[C@H]1OC(=O)C[C@H](O)CC[C@@](C)(O)[C@@H](OC(=O)N2CCN(C)CC2)/C=C/[C@@H]1C (stereo partly shown) | -85.4 | 10.1 | > 1000 | 14.7
3 | C/C(=C\C=C\[C@@H](C)COC(=O)N1CC[C@H](C)C1)[C@H]1OC(=O)C[C@H](O)CC[C@@](C)(O)[C@@H](OC(=O)N2CCN(C3CCCCCC3)CC2)/C=C/[C@@H]1C | -93.6 | 2.59 | > 1000 | 6.2
4 | C/C(=C\C=C\C(C)c1ccnc(N2CCCC2)n1)[C@H]1OC(=O)C[C@H](O)CC[C@@](C)(O)[C@@H](OC(=O)N2CCN(C3CCCCCC3)CC2)/C=C/[C@@H]1C (stereo partly shown) | -96.6 | 147 | 4310 | 23
5 | C/C(=C\C=C\[C@@H](C)COC(=O)N1CCCC1)[C@H]1OC(=O)C[C@@H](O)CC[C@@](C)(O)[C@@H](OC(=O)N2CCN(C)CC2)/C=C/[C@@H]1C | -95.4 | 12.3 | > 1000 | 25
6 | C/C(=C\C=C\[C@@H](C)COC(=O)N1C[C@H](O)[C@@H](O)C1)[C@H]1OC(=O)C[C@H](O)CC[C@@](C)(O)[C@@H](OC(=O)N2CCN(C3CCCCCC3)CC2)/C=C/[C@@H]1C | -95.4 | 74.6 | > 1000 | 294
7 | C/C(=C\C=C\[C@@H](C)COC(=O)N1CCCC1(C)C)[C@H]1OC(=O)C[C@H](O)CC[C@@](C)(O)[C@@H](OC(=O)N2CCN(C3CCCCCC3)CC2)/C=C/[C@@H]1C | -93 | 10.4 | > 1000 | 28.9
8 | C/C(=C\C=C\[C@@H](C)COC(=O)N1Cc2ccccc2C1)[C@H]1OC(=O)C[C@H](O)CC[C@@](C)(O)[C@@H](OC(=O)N2CCN(C)CC2)/C=C/[C@@H]1C | -56 | 35.4 | > 1000 | 33.8
9 | CCCCN(C)C(=O)OC[C@H](C)/C=C/C=C(\C)[C@H]1OC(=O)C[C@H](O)CC[C@@](C)(O)[C@@H](OC(C)=O)/C=C/[C@@H]1C |  | 198 | > 10000 | 86.5
10 | CC(=O)O[C@H]1/C=C/[C@H](C)[C@@H](/C(C)=C/C=C/C(C)CCc2ccccn2)OC(=O)C[C@H](O)CC[C@@]1(C)O (stereo partly shown) | 0.954 | 972 | > 10000 | 593
11 | C/C(=C\C=C\C(C)c1ccnc(N2CC[C@@H](O)C2)n1)[C@H]1OC(=O)CCCCC[C@@H](OC(=O)N2CCN(C3CCCCCC3)CC2)/C=C/[C@@H]1C (stereo partly shown) | -94.8 | 475 | > 10000 | 455
12 | C/C(=C\C=C\[C@@H](C)c1ccccn1)[C@H]1OC(=O)CCCCC[C@@H](OC(=O)N2CCN(C3CCCCCC3)CC2)/C=C/[C@@H]1C | -40.6 | 883 | 3820 | 258
13 | C/C(=C\C=C\C(C)c1ncccn1)[C@H]1OC(=O)CCCCC[C@@H](OC(=O)N2CCN(C)CC2)/C=C/[C@@H]1C (stereo partly shown) | -72.6 | 40.4 | > 1000 | 45.7
14 | COCCN(C)C(=O)OC[C@H](C)/C=C/C=C(\C)[C@H]1OC(=O)C[C@H](O)CC[C@@](C)(O)[C@@H](OC(C)=O)/C=C/[C@@H]1C | -96.8 | 64.3 | > 1000 | 247
15 | C/C(=C\C=C\C(C)c1ccnc(N(C)C)n1)[C@H]1OC(=O)CCCCC[C@@H](OC(=O)N2CCN(C3CCCCCC3)CC2)/C=C/[C@@H]1C (stereo partly shown) | 52 | > 10000 | > 10000 | 4280
16 | CC(=O)O[C@H]1/C=C/[C@H](C)[C@@H](/C(C)=C/C=C/C(C)(O)CCc2ccccc2)OC(=O)C[C@H](O)CC[C@@]1(C)O (stereo partly shown) | -41.5 | 354 | > 10000 | 194
17 | C/C(=C\C=C\[C@@H](C)COC(=O)n1ccc2ccccc21)[C@H]1OC(=O)C[C@H](O)CC[C@@](C)(O)[C@@H](OC(=O)N2CCN(C)CC2)/C=C/[C@@H]1C | -92.8 | 30.5 | > 1000 | 36.6
